Measurements published in ChEMBL document CHEMBL1201862, “PubChem BioAssay data set” (2004).
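Protocol summary: plate cells (96-well), add compound at 5 concentrations, incubate 48 h, interpolate endpoints linearly. GI50 = concentration required for 50% inhibition of growth.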 Active and inactive are the calls of the source. No stated cut-off is given here; in the data, active = GI50 up to about 1.1 µM and inactive = higher.

Columns and labels:
Assay in all cases: NCI anticancer screen, dose series, 48 h
ACHN = tested on: ACHN
DMS-114 = tested on: DMS-114
SW-620 = tested on: SW-620
SK-MEL-5 = tested on: SK-MEL-5
OVCAR-3 = tested on: OVCAR-3
HL-60 = tested on: HL-60
SF-268 = tested on: SF-268
DLD-1 = tested on: DLD-1
HT-29 = tested on: HT-29
KM12 = tested on: KM12
SNB-75 = tested on: SNB-75
SK-MEL-28 = tested on: SK-MEL-28
IGROV-1 = tested on: IGROV-1
M14 = tested on: M14
SNB-19 = tested on: SNB-19
HOP-62 = tested on: HOP-62
A549 = tested on: A549
HCT-15 = tested on: HCT-15
DMS-273 = tested on: DMS-273
EKVX = tested on: EKVX
Malme-3M = tested on: Malme-3M
RXF 631 = tested on: RXF 631
SK-MEL-2 = tested on: SK-MEL-2
SNB-78 = tested on: SNB-78
CAKI-1 = tested on: CAKI-1
KM-20L2 = tested on: KM-20L2
A498 = tested on: A498
U-251 = tested on: U-251
MOLT-4 = tested on: MOLT-4
XF498 = tested on: XF498
NCI-H522 = tested on: NCI-H522
LOX IMVI = tested on: LOX IMVI
NCI-H23 = tested on: NCI-H23
UACC-62 = tested on: UACC-62
SF-295 = tested on: SF-295
SK-OV-3 = tested on: SK-OV-3
HOP-18 = tested on: HOP-18
CCRF-CEM = tested on: CCRF-CEM
UACC-257 = tested on: UACC-257
786-0 = tested on: 786-0
RPMI-8226 = tested on: RPMI-8226
COLO 205 = tested on: COLO 205
LXFL 529 = tested on: LXFL 529
K562 = tested on: K562
NCI-H226 = tested on: NCI-H226
UO-31 = tested on: UO-31
OVCAR-8 = tested on: OVCAR-8
NCI-H460 = tested on: NCI-H460
SN12C = tested on: SN12C
HCC 2998 = tested on: HCC 2998
M19-MEL = tested on: M19-MEL
TK-10 = tested on: TK-10
OVCAR-4 = tested on: OVCAR-4
SF-539 = tested on: SF-539
OVCAR-5 = tested on: OVCAR-5
HCT-116 = tested on: HCT-116
SR = tested on: SR
RXF 393 = tested on: RXF 393
HOP-92 = tested on: HOP-92

COc1ccc(-c2c(N)[n+]([O-])c3cc(C)c(C)cc3[n+]2[O-])cc1OC
GI50 (ACHN): > 100 µM (inactive) | GI50 (DMS-114): 25.5 µM (inactive) | GI50 (SW-620): 74.8 µM (inactive) | GI50 (SK-MEL-5): 30.9 µM (inactive) | GI50 (OVCAR-3): > 100 µM (inactive) | GI50 (HL-60): 46.3 µM (inactive) | GI50 (SF-268): 43.8 µM (inactive) | GI50 (DLD-1): 85.7 µM (inactive) | GI50 (HT-29): 73.1 µM (inactive) | GI50 (KM12): > 100 µM (inactive) | GI50 (SNB-75): 36.4 µM (inactive) | GI50 (SK-MEL-28): 38.5 µM (inactive) | GI50 (IGROV-1): > 100 µM (inactive) | GI50 (M14): 55.6 µM (inactive) | GI50 (SNB-19): 91.2 µM (inactive) | GI50 (HOP-62): > 100 µM (inactive) | GI50 (A549): > 100 µM (inactive) | GI50 (HCT-15): 48.6 µM | GI50 (DMS-273): 99.3 µM (inactive) | GI50 (EKVX): > 100 µM (inactive) | GI50 (Malme-3M): > 100 µM (inactive) | GI50 (RXF 631): 20.4 µM (inactive) | GI50 (SK-MEL-2): 66.8 µM (inactive) | GI50 (SNB-78): > 100 µM (inactive) | GI50 (CAKI-1): 37.8 µM (inactive) | GI50 (KM-20L2): 54.3 µM (inactive) | GI50 (A498): > 100 µM (inactive) | GI50 (U-251): 67.3 µM (inactive) | GI50 (MOLT-4): 78.3 µM (inactive) | GI50 (XF498): > 100 µM (inactive) | GI50 (NCI-H522): 17.5 µM (inactive) | GI50 (LOX IMVI): > 100 µM (inactive) | GI50 (NCI-H23): 34 µM (inactive) | GI50 (UACC-62): 41.4 µM (inactive) | GI50 (SF-295): > 100 µM (inactive) | GI50 (SK-OV-3): > 100 µM (inactive) | GI50 (HOP-18): 28.8 µM (inactive) | GI50 (CCRF-CEM): 78 µM (inactive) | GI50 (UACC-257): 41.5 µM (inactive) | GI50 (786-0): > 100 µM (inactive) | GI50 (RPMI-8226): > 100 µM (inactive) | GI50 (COLO 205): 22.3 µM (inactive) | GI50 (LXFL 529): 58.5 µM (inactive) | GI50 (K562): 69.7 µM (inactive) | GI50 (NCI-H226): > 100 µM (inactive) | GI50 (UO-31): 54 µM (inactive) | GI50 (OVCAR-8): > 100 µM (inactive) | GI50 (NCI-H460): > 100 µM (inactive) | GI50 (SN12C): > 100 µM (inactive) | GI50 (HCC 2998): > 100 µM (inactive) | GI50 (M19-MEL): 72.3 µM (inactive) | GI50 (TK-10): > 100 µM (inactive) | GI50 (OVCAR-4): > 100 µM (inactive) | GI50 (SF-539): 33.9 µM (inactive) | GI50 (OVCAR-5): > 100 µM (inactive)

Cn1cnc([N+](=O)[O-])c1Sc1n[nH]c(-c2ccc(Cl)cc2)n1
GI50 (ACHN): 18.7 µM (inactive) | GI50 (DMS-114): 18.2 µM (inactive) | GI50 (SW-620): 21.7 µM (inactive) | GI50 (SK-MEL-5): 15.7 µM (inactive) | GI50 (OVCAR-3): 18.1 µM (inactive) | GI50 (SF-268): 22 µM (inactive) | GI50 (DLD-1): 18.4 µM (inactive) | GI50 (HT-29): 19.1 µM (inactive) | GI50 (HCT-116): 19.6 µM (inactive) | GI50 (KM12): 18.5 µM (inactive) | GI50 (SNB-75): 18.6 µM (inactive) | GI50 (SK-MEL-28): 15.3 µM (inactive) | GI50 (IGROV-1): 20 µM (inactive) | GI50 (M14): 15 µM (inactive) | GI50 (SNB-19): 20.7 µM (inactive) | GI50 (HOP-62): 21.5 µM (inactive) | GI50 (A549): 25.3 µM (inactive) | GI50 (DMS-273): 16.9 µM (inactive) | GI50 (EKVX): 23.9 µM (inactive) | GI50 (SR): 13.1 µM (inactive) | GI50 (Malme-3M): 11.1 µM (inactive) | GI50 (RXF 631): 20.7 µM (inactive) | GI50 (SK-MEL-2): 13.6 µM (inactive) | GI50 (SNB-78): 19.8 µM (inactive) | GI50 (CAKI-1): 25.1 µM (inactive) | GI50 (A498): 22.4 µM (inactive) | GI50 (U-251): 19.5 µM (inactive) | GI50 (RXF 393): 13.3 µM (inactive) | GI50 (MOLT-4): 12.2 µM (inactive) | GI50 (XF498): 10.1 µM (inactive) | GI50 (NCI-H522): 11.7 µM (inactive) | GI50 (LOX IMVI): 15 µM (inactive) | GI50 (NCI-H23): 18.6 µM (inactive) | GI50 (UACC-62): 14.4 µM (inactive) | GI50 (SF-295): 23.4 µM (inactive) | GI50 (SK-OV-3): 30.9 µM (inactive) | GI50 (HOP-18): 1.47 µM (inactive) | GI50 (CCRF-CEM): 11.8 µM (inactive) | GI50 (UACC-257): 17.1 µM (inactive) | GI50 (786-0): 20.3 µM (inactive) | GI50 (RPMI-8226): 22.1 µM (inactive) | GI50 (COLO 205): 17.1 µM (inactive) | GI50 (LXFL 529): 11.7 µM (inactive) | GI50 (K562): 13.7 µM (inactive) | GI50 (NCI-H226): 14 µM (inactive) | GI50 (UO-31): 19.1 µM (inactive) | GI50 (OVCAR-8): 16.3 µM (inactive) | GI50 (NCI-H460): 20.8 µM (inactive) | GI50 (HOP-92): 14.5 µM (inactive) | GI50 (SN12C): 15.5 µM (inactive) | GI50 (HCC 2998): 21.3 µM (inactive) | GI50 (M19-MEL): 19 µM (inactive) | GI50 (TK-10): 17.7 µM (inactive) | GI50 (OVCAR-4): 18.3 µM (inactive) | GI50 (SF-539): 15.3 µM (inactive) | GI50 (OVCAR-5): 23.4 µM (inactive)
